Measured values from PubChem BioAssay (NCI).
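Values below derive from 48-hour exposures of cells grown in 96-well plates, with endpoints linearly interpolated between the two concentrations bracketing the appropriate inhibition level. At the GI50, growth is halved. The concentration for full growth arrest is given as TGI.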

What was measured:
Experiment in all cases: inhibition of tumour cell growth, NCI panel, 48 h
SNB-19 CNS = test system: SNB-19 CNS
MDA-MB-435 = test system: MDA-MB-435
SN12C renal = test system: SN12C renal
KM12 colon = test system: KM12 colon
SF-539 CNS = test system: SF-539 CNS
SF-295 CNS = test system: SF-295 CNS
OVCAR-5 ovarian = test system: OVCAR-5 ovarian
K-562 leukemia = test system: K-562 leukemia
BT-549 breast = test system: BT-549 breast
MCF7 breast = test system: MCF7 breast

Compound	GI50 (SNB-19 CNS) [µM]	TGI (SNB-19 CNS) [µM]	GI50 (MDA-MB-435) [µM]	TGI (MDA-MB-435) [µM]	GI50 (SN12C renal) [µM]	TGI (SN12C renal) [µM]	GI50 (KM12 colon) [µM]	TGI (KM12 colon) [µM]	GI50 (SF-539 CNS) [µM]	TGI (SF-539 CNS) [µM]	GI50 (SF-295 CNS) [µM]	TGI (SF-295 CNS) [µM]	GI50 (OVCAR-5 ovarian) [µM]	TGI (OVCAR-5 ovarian) [µM]	GI50 (K-562 leukemia) [µM]	TGI (K-562 leukemia) [µM]	GI50 (BT-549 breast) [µM]	TGI (BT-549 breast) [µM]	GI50 (MCF7 breast) [µM]	TGI (MCF7 breast) [µM]
Cc1ccc(Sc2sc(-c3ccccc3)nc2[P+](c2ccccc2)(c2ccccc2)c2ccccc2)cc1	0.33	1.33	0.291	0.882	0.323	1.1	0.314	1.09	0.375	1.47	0.243	0.722	0.4	1.45	0.257	1.54	0.32	1.18	–	–
C=C1C(=O)O[C@H]2[C@H]1CC/C(Cn1cc(-c3cc(C)c(C)cc3C)nn1)=C\CC[C@@]1(C)O[C@@H]21	3.9	15.9	1.41	3.76	1.49	3.41	2.31	6.62	1.16	2.43	6.44	20.7	1.74	4.38	1.39	6.24	0.753	2.66	–	–
COc1ccc2c(c1)/C(=C/c1cc(OC)c(OC)c(OC)c1)C(=O)N2C	3.19	> 27.7	–	–	3.44	> 44.5	1.76	4.95	2.21	5.92	2.78	> 100	5.49	> 100	1.12	> 46.5	2.84	> 30.4	1.83	> 25.8
N#C/C(=C\c1ccc(C(O)P(=O)(O)O)cc1)C(N)=O (configuration not stated)	–	> 100	–	–	–	> 100	–	> 100	–	> 100	–	> 100	–	–	–	> 100	–	–	–	–
COc1ccc(-c2cc(=O)c3c(OC)c(OC)c(OC)c(OC)c3o2)c(OC)c1	–	> 100	–	89.7	–	62.6	–	–	–	> 100	–	46	–	> 100	–	> 100	–	> 100	–	44
COc1cc2c(cc1OCCCCOc1ccc(-c3nc4ccccc4s3)cc1)N=C[C@@H]1CCCN1C2=O	1.52	3.04	–	–	1.13	4	–	–	0.768	2	1.22	8.81	0.861	3.86	0.301	4.91	0.93	2.38	0.625	4.34
C=C1C(=O)OC2CC(C)C3C=CC(=O)C3CC12 (configuration not stated)	–	37.7	–	12.4	–	5.19	–	18.9	–	4.92	–	28.9	–	10.4	–	12.9	–	9.94	–	–
N#Cc1ccc2c(c1)C(=O)c1c-2n(CCCN)c(=O)c2cc([N+](=O)[O-])ccc12	0.146	1.54	–	–	0.261	1.82	1.2	3.89	0.219	1.31	0.0382	1.49	0.705	1.86	0.185	3.97	0.847	2.29	–	–
N#CC1C2CCC3(CC2CCN1C(=O)c1ccccc1)OCCO3 (configuration not stated)	–	> 100	–	–	–	> 100	–	> 100	–	> 100	–	> 100	–	> 100	–	> 100	–	–	–	–
CC1(O)CCC2(C#N)CCC1C2O (configuration not stated)	–	> 100	–	–	–	> 100	–	> 100	–	> 100	–	> 100	–	> 100	–	> 100	–	–	–	–
O=C1CS/C(=N\S(=O)(=O)c2ccc(N3N=C4c5ccccc5CC4C3c3ccc(Cl)cc3)cc2)N1c1ccccc1 (configuration not stated)	23.3	> 100	30.6	88.8	37.3	> 100	22	58.6	60.2	> 100	35.8	98.7	–	–	18.7	40.3	35.6	> 100	18.7	47.9
CSc1ncnc2c1CCN2	> 100	> 100	–	6.04	–	> 100	> 100	> 100	–	–	> 100	> 100	–	–	–	–	–	–	–	–
CC(C)C(=O)/C=C/c1ccc(Cl)c(Cl)c1	–	28.5	–	–	–	29.2	–	29	–	26	–	29.4	–	36.8	–	72.2	–	–	–	–
NC(CC1=CCC=CC1)C(=O)O (configuration not stated)	–	> 100	–	> 100	–	> 100	–	> 100	–	–	–	> 100	–	> 100	–	> 100	–	> 100	–	> 100
Clc1ccc(Nc2ccnc(NCCCNc3ccnc4cc(Cl)ccc34)n2)cc1	–	–	–	–	–	–	–	–	1.67	3.19	1.55	2.96	1.68	3.09	–	–	1.74	3.67	–	–
COC(=O)C1C(OCc2ccccc2)C2CCC1(OC)C=C2C (configuration not stated)	–	> 100	–	–	–	> 100	–	> 100	–	> 100	–	> 100	–	> 100	–	> 100	–	–	–	–
COc1cc2c(c(OC)c1OC)-c1ccc(OC)c(=O)cc1[C@@H](N(C)C=O)CC2	–	> 100	–	–	–	> 100	–	0.747	–	0.0247	–	0.0365	–	> 100	–	> 100	–	–	–	–
C1=Nc2ccccc2C=Nc2ccccc2C=Nc2ccccc2C=Nc2ccccc21.[Cl-].[Pt+2]	42.8	> 100	–	–	28.4	> 100	–	–	23.1	54.1	–	–	–	–	3.61	93.7	–	–	–	–
COc1ccc(-c2c(N)[n+]([O-])c3ccccc3[n+]2[O-])cc1OC	–	> 100	–	–	–	> 100	–	> 100	–	> 100	–	> 100	–	> 100	–	> 100	–	–	–	–
COc1ccc(N(/C=C/C(=O)C(F)(F)F)CC(=O)c2ccc(Cl)c(Cl)c2)cc1	–	–	12.1	25.4	14.5	33.5	11.6	37.3	16.1	30.3	14.5	28.6	16.5	30.2	4.07	> 100	7.57	22	5.11	28.9
Cc1ccc2c(c1)CNc1ccc(C)cc1CN2	–	–	–	–	–	> 100	–	> 100	–	> 100	–	> 100	–	> 100	–	> 100	–	–	–	–
COc1cc2c(cn1)[nH]c1ccccc12	–	> 100	–	–	–	> 100	–	> 100	–	> 100	–	> 100	–	> 100	–	> 100	–	–	–	–

Compound	GI50 (SNB-19 CNS) [µM]	TGI (SNB-19 CNS) [µM]	GI50 (MDA-MB-435) [µM]	TGI (MDA-MB-435) [µM]	GI50 (SN12C renal) [µM]	TGI (SN12C renal) [µM]	GI50 (KM12 colon) [µM]	TGI (KM12 colon) [µM]	GI50 (SF-539 CNS) [µM]	TGI (SF-539 CNS) [µM]	GI50 (SF-295 CNS) [µM]	TGI (SF-295 CNS) [µM]	GI50 (OVCAR-5 ovarian) [µM]	TGI (OVCAR-5 ovarian) [µM]	GI50 (K-562 leukemia) [µM]	TGI (K-562 leukemia) [µM]	GI50 (BT-549 breast) [µM]	TGI (BT-549 breast) [µM]	GI50 (MCF7 breast) [µM]	TGI (MCF7 breast) [µM]
CC/C=C/c1cc2cc[nH]c2c2c1C(C)C[C@@H]2C (some centres not stated)	–	–	–	–	–	35	–	40.8	–	50.1	–	55.9	–	–	–	65.9	–	–	–	–
COc1ccccc1-c1cc(=O)c2ccc(OC)c(OC)c2o1	–	> 100	–	> 100	–	> 100	–	–	–	> 100	–	> 100	–	> 100	–	> 100	–	> 100	–	> 100
O=C(NCc1ccncc1)C1COc2cc(-c3cc(=O)c4ccccc4o3)ccc2O1 (configuration not stated)	–	–	–	–	–	> 100	–	> 100	–	> 100	–	> 100	–	> 100	–	> 100	–	–	–	–
CC(=O)/C=C/c1ccc(C)cc1	–	> 100	–	–	–	> 100	–	> 100	–	> 100	–	> 100	–	> 100	–	> 100	–	–	–	–
CC(C)CN(CC(C)C)C(=O)C1CCCC[C@@H]1C(=O)O (some centres not stated)	–	–	–	–	–	> 100	–	> 100	–	> 100	–	> 100	–	–	–	> 100	–	–	–	–
c1ccc(COC2(OCc3ccccc3)CC3OC2C2NN=NC32)cc1 (configuration not stated)	–	–	–	–	–	> 10	–	80.7	–	43.5	–	62.4	–	> 100	–	38.6	–	–	–	–
Cc1c2c(cc3c(=O)ccn(CCN(C)C)c13)c(=O)ccn2CCN(C)C	–	35.7	–	–	–	33.3	–	13.9	–	29.7	–	25.4	–	42.3	–	44.9	–	–	–	–
CCSc1nnc(-c2ccc3ccccc3c2O)n1-c1ccc(Cl)cc1	5.84	> 100	–	–	> 100	> 100	> 100	> 100	> 100	> 100	4.24	> 100	> 100	> 100	4.04	> 100	> 100	> 100	6.66	> 100
COc1cc(Nc2nc3ccc(C(F)(F)F)cc3nc2-c2ccccc2)cc(OC)c1OC	–	–	–	–	–	> 100	–	> 100	–	> 100	–	11.6	–	53.1	–	> 100	–	–	–	–
O=C(/C=C/c1ccccc1Cl)c1ccc(Cl)cc1Cl	–	28.8	–	–	–	32.2	–	24.1	–	38.5	–	36.3	–	30.8	–	11.7	–	–	–	–
O=C(c1ccc(Cl)cc1)c1ccc(OCCSCCCCCCCCCCSCCOc2ccc(C(=O)c3ccc(Cl)cc3)cc2)cc1	–	> 100	–	–	–	> 100	–	> 100	–	–	–	> 100	–	> 100	–	> 100	–	–	–	–
N#CC1CC2(C(=O)C1=O)c1ccccc1-c1ccccc12 (configuration not stated)	–	> 100	–	–	–	> 100	–	> 100	–	–	–	> 100	–	> 100	–	> 100	–	–	–	–
C1COCCOCCOCCOCCO1.CC(=O)[CH-]C(C)=O.CC(=O)[CH-]C(C)=O.CC(=O)[CH-]C(C)=O.[V]	15.3	32.6	–	–	21.3	62.3	16.8	37	3.75	13.8	7.9	22	–	–	29.1	71.4	–	–	–	–
Cc1cc2cn3c4cccnc4[nH]c(=O)c3c2cc1C	–	–	–	–	–	–	1.15	2.56	1.73	3.12	1.51	3.26	1.66	3.02	–	–	12.2	29.4	–	–
O=c1c2cccnc2ncn1CCN1CCCC1	–	> 100	–	–	–	> 100	–	> 100	–	> 100	–	> 100	–	> 100	–	> 100	–	–	–	–
O=c1c2ccccc2nc(-c2cccc(Cl)c2)n1NCC1(O)OCC(O)C(O)C1O (configuration not stated)	–	> 100	–	–	–	> 100	–	> 100	–	> 100	–	> 100	–	> 100	–	> 100	–	–	–	–
Cc1cc(=O)oc2cc(OS(C)(=O)=O)ccc12	–	> 100	–	> 100	–	> 100	–	–	–	> 100	–	> 100	–	> 100	–	> 100	–	> 100	–	> 100
N#Cc1c(N)nc(N2CCOCC2)c(C#N)c1-c1ccccc1Cl	48.5	> 100	80.2	> 100	35.8	> 100	–	–	43.5	> 100	38.5	> 100	26.4	> 100	60.9	> 100	30.5	> 100	17.7	88.7
S=c1nc(N2CCCCC2)ss1	–	84.9	–	–	–	40.9	–	33.9	–	36.6	–	81.4	–	> 100	–	52.1	–	–	–	–
Fc1ccc2[nH]cc(SSc3c[nH]c4ccc(F)cc34)c2c1	5.21	22.1	4.62	21.5	–	–	3.76	16.1	3.77	14.7	3.04	11.2	12.7	39.9	3.89	> 100	4.94	24.4	3.87	20
CCC(C(=O)c1ccccc1)C(CCCC(=O)Nc1c(C)cccc1C)N=O (configuration not stated)	–	> 100	–	–	–	> 100	–	> 100	–	> 100	–	> 100	–	> 100	–	> 100	–	–	–	–
Cc1ccc(Oc2ccc([N+](=O)[O-])cc2[N+](=O)[O-])c(C)c1	–	–	–	–	–	> 100	–	–	–	> 100	–	> 100	–	> 100	–	> 100	–	–	–	–
